Reference: US12187663B2, “Thyromimetics with a biphenylmethane scaffold and their use” (INTERNATIONAL SOCIETY FOR DRUG DEVELOPMENT S.R.L., priority 2019, dated 2025)

Assays:
[1] = target: T1, TR-alpha (Homo sapiens, UniProt P10827); test: LanthaScreen TR-FRET nuclear receptor coregulator assay, TR-alpha; type: biochemical; details: for EC50: Nuclear Receptor TR-alpha, coregulator peptide recruitment; for interaction with TRalpha receptor: conclusion from TR-FRET data
T1 construct: In this assay Nuclear Receptor-LBD is added to ligand test compounds; purchased Invitrogen Corporation, Life Technologies
T1 sequence (P10827 163-410 isoform P10827-2 limits assumed, other chains not shown): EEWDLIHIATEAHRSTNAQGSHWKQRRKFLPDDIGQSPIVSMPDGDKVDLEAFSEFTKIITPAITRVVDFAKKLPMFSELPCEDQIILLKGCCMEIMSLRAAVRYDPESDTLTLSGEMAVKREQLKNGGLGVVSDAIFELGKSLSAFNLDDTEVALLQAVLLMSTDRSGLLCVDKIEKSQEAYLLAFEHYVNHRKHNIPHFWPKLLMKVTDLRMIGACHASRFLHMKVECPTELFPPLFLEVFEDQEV
Protocol: (§1) The compounds of Formula (I,II) were tested in the biological test named LANTHASCREEN TR-FRET NUCLEAR RECEPTOR COREGULATOR ASSAY (Invitrogen Corporation, Life Technologies).
(§2) In this assay Nuclear Receptor-LBD is added to ligand test compounds followed by addition of a mixture of the fluorescein-coregulator peptide and terbium anti-GST antibody.

[2] = target: T2, TR-beta (Homo sapiens, UniProt P10828); test: LanthaScreen TR-FRET nuclear receptor coregulator assay, TR-beta; type: biochemical; details: coregulator peptide recruitment
T2 construct: In this assay Nuclear Receptor-LBD is added to ligand test compounds; purchased Invitrogen Corporation, Life Technologies
T2 sequence (P10828 217-461 limits assumed): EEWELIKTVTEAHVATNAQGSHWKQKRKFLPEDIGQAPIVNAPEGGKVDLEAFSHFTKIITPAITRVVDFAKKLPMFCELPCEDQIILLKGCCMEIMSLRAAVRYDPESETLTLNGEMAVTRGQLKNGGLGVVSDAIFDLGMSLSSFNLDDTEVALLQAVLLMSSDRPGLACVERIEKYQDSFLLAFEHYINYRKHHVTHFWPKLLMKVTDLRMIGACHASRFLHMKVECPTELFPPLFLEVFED
Protocol: as §1, §2

[3] = test system: AMPK; test: Western blot of phosphorylated AMPK in HepG2 cells; type: cell-based, Human; details: twenty-four hours of treatment, dose dependent
Protocol: Human hepatocellular carcinoma cells (HepG2), obtained from American Type Culture Collection (Manassas, Va., USA), were cultured in low-glucose (LG) Dulbecco's modified Eagle's medium (DMEM) ([…], Invitrogen, Carlsbad, Calif., USA) or high-glucose (HG) DMEM ([…]) supplemented with 10% fetal bovine serum (FBS) and […] penicillin/streptomycin in an atmosphere of 5% CO2 at 37° C. These cells were then treated with tested compounds at various concentrations for 24 h. After treatments, cells were lysed in a buffer containing 20 mM Tris-HCl (pH 7.5), 0.9% NaCl, 0.2% Triton X-100, and 1% of the protease inhibitor cocktail (Sigma-Aldrich, Milan, Italy) and then stored at −80° C. for further western blot analysis. All the analyses were conducted on cells between the third and the sixth passage.
Proteins (20-30 μg) were separated on CriterionTGX™ gel (4-20%) and transferred on Immuno-PVDF membrane (Biorad, Milan, Italy) for 1 h. Blots were incubated with the primary antibody at 4° C. overnight. All the polyclonal antibodies for the protein of interest were purchased from Santa Cruz Biotechnology, Inc., Dallas, TX, USA. Then, blots were washed 3 times for 10 minutes with 1×TBS, 0.1% Tween® 20 and incubated for 1 h with secondary antibody (peroxidase-coupled anti rabbit in 1×TBS, 0.1% Tween®20). […] Band densitometric analysis was performed using Image Lab Software (Biorad, Milan, Italy).
The liver is a major organ responsible for most functions of cellular metabolism and a mediator between dietary and endogenous sources of energy for extrahepatic tissues. In this context, AMPK constitutes an intrahepatic energy sensor regulating physiological energy dynamics by limiting anabolism and stimulating catabolism, thus increasing ATP availability. Once activated, AMPK phosphorylates its downstream substrates to reduce ATP-consuming anabolic pathways, including cholesterol, fatty acid, and triacylglycerol synthesis, and increases ATP-generating catabolic pathways, including fatty acid oxidation and lipolysis. […]

[4] = test system: HepG2 cells; test: Glycerol release (lipolysis); type: cell-based, Human; details: 24 hours treatment, 1 and 10 μM
Protocol: Samples of the media collected from HepG2 cells used to test lipid accumulation by Oil Red O staining (as detailed above), were assayed for glycerol levels using the Glycerol Assay Kit (Cell Based-ab133130-Abcam).

[5] = test system: HepG2 cells; test: Cell viability MTT assay; type: cell-based; details: 1-10 μM, 24 h
Protocol: HepG2 cells were seeded in a 96-well plate (Corning, USA) at a density of 1.0×10^4 cells/well with DMEM (200 μl/well), and then incubated for 24 h according to routine procedure. After being treated with test compounds (1-10 μM) and incubated for 24 h (8 wells for each sample), 20 μL/well MTT (5 g/L) was added to each well. The medium was then removed after 4 h incubation and 100 μL/well sodium dodecyl sulfate (SDS)-HCl solution was added to dissolve the reduced formazan product after incubation for 16 h at 37° C. Finally, the plate was read at 570 nm, using a micro-plate reader (Bio-Rad 680, USA).

[6] = Liver/body weight ratio in rats; type: in vivo, F344 male rats; details: 3 days daily; IS25 or TG68 50, 75, 100 μg/100 g b.w. i.g. or 75 μg/100 g i.p.; T3 20 μg/100 g b.w.
Protocol: Five-week-old male F-344 rats purchased from Charles River (Milano, Italy) were maintained on a standard laboratory diet (Ditta Mucedola, Milano, Italy). The animals were given food and water ad libitum with a 12-h light/dark daily cycle and were acclimated for 1 week before the start of the experiment. All procedures were performed in accordance with the Guidelines for the Care and Use of Laboratory Animals and were approved by the Italian Ministry of Health. […] A control group received the vehicle (DMSO 5% in corn oil). Additional two groups received daily injections of either IS25 or TG68 at the dose of 75 μg/100 g b.wt. intraperitoneally for 3 days. For the measurement of hepatocyte proliferation, animals received bromodeoxyuridine (BrdU; 1 g/1 L) in drinking water during the 3-day treatment period (FIGS. 7A and B).
A control group received the vehicle (DMSO 5% in corn oil). Additional two groups received daily injections of either IS25 or TG68 at the dose of 75 μg/100 g b.w. intraperitoneally for 3 days.

[7] = test system: pancreatic acinar cells; test: Pancreatic acinar cell proliferation (BrdU labeling index); type: in vivo, rats; details: one week; T3 4 mg/kg diet; GC1 50 μg/kg gavage once daily; TG68 and IS25 50 μg/kg in drinking water
Protocol: FIG. 9. […] BrdU (1 mg/ml) in drinking water was given all throughout the experimental time. […] LI was expressed as number of BrdU-positive acinar cell nuclei/100 nuclei. At least 2000 acinar cells per pancreas were scored. Results are expressed as means±SE of 3 to 5 rats per group. (one way ANOVA). ***Statistically significant from control; P<0.001.
BrdU (1 mg/ml) in drinking water was given all throughout the experimental time. […] LI was expressed as number of BrdU-positive acinar cell nuclei/100 nuclei. At least 2000 acinar cells per pancreas were scored.

Cc1cc(OCC(=O)O)cc(C)c1Cc1ccc(N)c(C(C)C)c1 [IS25, 2-(4-(4-amino-3-isopropylbenzyl)-3,5-dimethylphenoxy)acetic acid]
EC50 [1]: > 1 µM
interaction with TRalpha receptor [1]: do not interact
EC50 [2]: 0.458 µM
expression of p-AMPK [3]: significantly (p<0.05) increased
glycerol release / lipolysis [4]: induce lipolysis
cell viability (cell death with respect to control) [5]: did not significantly (p<0.05) cause cell death
liver/body weight ratio [6]: no such effect was observed
pancreatic acinar cell proliferation (BrdU-positive acinar cells) [7]: mitogenic only for the liver and not for other tissues

CC(=O)Nc1ccc(Cc2c(C)cc(OCC(=O)O)cc2C)cc1C(C)C [TG68, 2-(4-(4-acetamido-3-isopropylbenzyl)-3,5-dimethylphenoxy)acetic acid]
EC50 [1]: > 1 µM
interaction with TRalpha receptor [1]: do not interact
EC50 [2]: > 1 µM
expression of p-AMPK [3]: significantly (p<0.05) increased
glycerol release / lipolysis [4]: induce lipolysis
cell viability (cell death with respect to control) [5]: did not significantly (p<0.05) cause cell death
liver/body weight ratio [6]: no such effect was observed
pancreatic acinar cell proliferation (BrdU-positive acinar cells) [7]: mitogenic only for the liver and not for other tissues
